Entries after “also recorded” stand apart in the source; their conditions may differ. Where two headings read alike, the source gives them in different places.
Columns and labels:
[1] = tested on: ATXN2-luc; assay: qHTS (NCGC LOPAC pilot and primary), Steady-Glo luciferase, 1536-well; assay type: cell-based
Method: 4 μl of S2 cell suspension in phenol-red free DMEM was dispensed into wells of 1536-well assay plates. […] Next, SteadyGlo luciferase substrate detection reagent (3 μl) was added to each well and incubated for an additional 5 minutes at room temperature. Luminescence was then measured on the ViewLux imager equipped with clear filters using a 2 sec exposure. All screening operations were performed on a fully integrated robotic system (Kalypsys) containing one RX-130 and two RX-90 anthropomorphic robotic arms (Staubli). Vehicle-only plates, with DMSO being pin-transferred to columns 5-48, were inserted uniformly at the beginning and the end of each library in order to monitor and record any shifts in assay performance.
Screening to optimize the assay in 1536-well format was conducted at the NCGC laboratory using S2 cells. […] Cytotoxicity was determined using a multiplexed viability assay (CellTiter-Fluor). […] Cells were plated 1000 cells/well in 1536 well plates. Plates were assayed for ATXN2-luc expression (Steady-Glo) and compound effect on cell abundance (CellTiter-Fluor), with increases shown for each well indicated by red, and decreases indicated by blue.
A fluorescence-based viability assay using GF-AFC substrate was used to determine compound effect on cell viability and Steady-Glo was used to measure luciferase in a multiplexed assay.

[2] = tested on: ATXN2-luc; assay: Secondary assays, Bright-Glo luciferase in H2 and S2 cells; assay type: cell-based; settings: for min ATXN2-luc: minimum ATXN2-luc luciferase over 12 doses, H2 and S2 cells
Method: (§1) Compounds were plated at 2× concentrations in 25 μl in 384 well plates with each compound dose plated in triplicate. An equal volume of S2, H2, or SC cells (24,000 cells/well) suspended in phenol-red free Dulbecco's Modified Eagle Medium (DMEM) with 10% fetal bovine serum and 1× penicillin/streptomycin were added. Cells were grown 24 hrs then assayed first by using the CellTiter-Fluor reagent (20 μl) followed by the addition of Bright-Glo ([…]) luciferase assay, using a multimode plate reader (Beckman DT880). Values were reported as the mean±standard deviation (SD) with n=3. IC50s were determined by the Hill coefficient method using an online tool (https://www.aatbio.com/tools/ic50-calculator).
(§2) These 46 compounds were retested at 12 doses and a zero-compound dose, in multiplexed assays in 96-well plates using CellTiter-Fluor to determine cell viability, then Bright-Glo to determine luciferase expression. The values for H2 and S2 were used as replicates to calculate IC50s and to assess cell viability.
(§3) For CMV-luc and viability charts, the fitted lines are second-order polynomials. Means and SD are shown.

[3] = tested on: CMV-luc; assay: Secondary assays, Bright-Glo luciferase in SC cells; assay type: cell-based; settings: minimum CMV-luc luciferase in SC cells over 12 doses
Method: as §1, §3

[4] = tested on: H2, S2, and SC cells; assay: Secondary assays, CellTiter-Fluor viability
Method: as §1, §2, §3

[5] = tested on: ATXN2-luc; settings: H2 cells
[6] = tested on: ATXN2-luc; settings: average ATXN2-luc response of H2 and S1 cells
[7] = tested on: mutant ATXN2-Q58 protein; assay: Western blot of mutant ATXN2-Q58 protein in HEK-293 KI cells; assay type: cell-based; settings: western blotting
Description: The n number of blots ranged from 3 to 9.

[8] = tested on: HSP70; assay: BAC-Q22 mice, HSP70 western blot; assay type: in vivo; settings: IP every other day, 17-DMAG 100 mg/kg, HSP990 4 mg/kg
Method: (§4) BAC-ATXN2-Q22 (BAC-Q22) mice were used as previously described. BAC-Q22 are transgenic for the complete human ATXN2 gene with all introns and exons, including 16 kb upstream sequence driving ATXN2 expression and the complete 3′-UTR. The mice used in this study were maintained on a mixed B6;D2 background with backcrossing to wildtype vendor-purchased (Jackson Laboratories) mice every five generations. Mice were treated with 17-DMAG or HSP990 by intraperitoneal (IP) injection, 200-300 μl total volume. 17-DMAG was diluted in 40% DMSO and 0.05% Tween 20 and mice received 100 mg/kg 17-DMAG. HSP990 was diluted in 0.6% DMSO and 0.05% Tween 20 and mice received 4 mg/kg HSP990. Control treated mice included vehicle alone. Mice were treated repeatedly as described in Results. Mouse husbandry and surgical procedures were in accordance to Institutional Animal Care and Use Committee (IACUC) approved protocols.
Proteins were prepared, separated on precast polyacrylamide gels (Bio-Rad), transferred to Hybond (Amersham) and detected by ECL (Amersham) as previously described. […]
Since 17-DMAG reduced expression of both the wildtype and mutant ATXN2 proteins, its effects were tested using only ATXN2-BAC mice harboring the non-mutant human ATXN2-Q22 gene (BAC-Q22 mice). […] Three blots were quantified.

[9] = cited from earlier work
[10] = tested on: ATXN2-Q22; assay: BAC-Q22 mice, ATXN2 western blot; assay type: in vivo
Method: as §4
Proteins were prepared, separated on precast polyacrylamide gels (Bio-Rad), transferred to Hybond (Amersham) and detected by ECL (Amersham) as previously described.
(§5) Antibodies included the following: mouse monoclonal anti-Ataxin-2 antibody (Clone 22/Ataxin-2) (BD Biosciences, 611378), rabbit monoclonal anti-Hsp70 antibody (EPR16892) (Abcam, ab181606), mouse monoclonal anti-β-Actin-peroxidase antibody (clone AC-15) (Sigma-Aldrich, A3854), rabbit polyclonal anti-Staufen antibody (Novus Biologicals, NBP1-33202), mouse monoclonal anti-CHOP (L63F7) antibody (Cell Signaling Technology, 2895), rabbit polyclonal anti-phospho-eIF2a (Ser51) antibody (Cell Signaling Technology, 9721), rabbit polyclonal anti-mTOR antibody (Cell Signaling Technology, 2972), rabbit polyclonal anti-SQSTM1/p62 antibody (Cell Signaling Technology, 5114), rabbit polyclonal anti-LC3B antibody (Novus Biologicals, NB100-2220), rabbit monoclonal anti-BiP antibody (C50B12) (Cell Signaling Technology, 3177). Secondary antibodies included peroxidase-conjugated horse anti-mouse IgG (Vector Laboratories, PI-2000) and peroxidase AffiniPure goat anti-rabbit IgG (Jackson ImmunoResearch Laboratories, 111-035-144).
Since 17-DMAG reduced expression of both the wildtype and mutant ATXN2 proteins, its effects were tested using only ATXN2-BAC mice harboring the non-mutant human ATXN2-Q22 gene (BAC-Q22 mice). Reliable detection of mutant ATXN2 protein by western blot in samples isolated from SCA2 BAC mice is possible, but it is challenging and involves use of the 1C2 antibody. To test efficacy of 17-DMAG in the wildtype ATXN2 mice, 27 wk old BAC-Q22 mice were treated (n=4 per group, 2 males, 2 females) every other day over 16-days (days 1, 3, 5, 7, 9, 11, 13, 15) then sacrificed on day 16. […] Three blots were quantified.

[11] = BAC-Q22 mice, survival / tolerability; assay type: in vivo; settings: IP every other day, 17-DMAG 100 mg/kg, HSP990 4 mg/kg
Method: as §4
Since 17-DMAG reduced expression of both the wildtype and mutant ATXN2 proteins, its effects were tested using only ATXN2-BAC mice harboring the non-mutant human ATXN2-Q22 gene (BAC-Q22 mice). Reliable detection of mutant ATXN2 protein by western blot in samples isolated from SCA2 BAC mice is possible, but it is challenging and involves use of the 1C2 antibody. […] Three blots were quantified. […]

[12] = tested on: endogenous non-mutant ATXN2 protein; assay: Western blot of endogenous non-mutant ATXN2 protein in HEK-293 cells; assay type: cell-based; settings: western blotting
[13] = tested on: ATXN3; settings: ATXN3-135Q transgenic mice, cited from earlier work
[14] = tested on: HSP70; assay: Western blot of HSP70 in cells (HSP90 target engagement); assay type: cell-based; settings: cultured cells, western blotting
Description: (§6) Probabilities are from one-way ANOVA and post-hoc Bonferroni corrected t-tests: ns, not significant; **, P<0.01.
Probabilities are from one-way ANOVA and post-hoc Bonferroni corrected t-tests: ns, not significant; *, p<0.05; **, p<0.01, ***, p<0.001. The n number of blots ranged from 3 to 9.

[15] = tested on: ATXN2-luc mRNA; assay: ATXN2-luc mRNA abundance in H2 cells by quantitative PCR; assay type: cell-based; settings: 1 and 10 uM, 48 hrs
Description: (§7) Total RNA was extracted from cells cultured in 24-well plates using the RNeasy Mini-Kit (Qiagen Inc.) according to the manufacturer's protocol. DNAse I treated RNAs were used to synthesize cDNA using ProtoScript cDNA synthesis kit (New England Biolabs Inc.). Sets of primers used for qPCR included ATXN2 primers ATXN2-F (5′-[sequence]-3′) & ATXN2-R (5′-[sequence]-3′), ATP1A2 primers ATP1A2-F (5′-[sequence]-3′) & ATP1A2-R (5′-[sequence]-3′), GAPDH primers GAPDH-F133 (5′-[sequence]-3′) & GAPDH-R333 (5′-[sequence]-3′), and mouse Actb primers Actb-F (5′-[sequence]-3′) & Actb-R (5′-[sequence]-3′). qPCR was performed in the Bio-Rad CFX96 instrument (Bio-Rad Inc.) with the Power SYBR Green PCR master mix (Applied Biosystems Inc.). PCR amplification was carried out for 45 cycles. Cycling parameters were denaturation (95° C. for 10 s), annealing (60° C. for 10 s), extension (72° C. for 40 s).
The ATXN2-luc mRNA abundance was determined by quantitative PCR using primers that amplify the luciferase gene. Probabilities are from one-way ANOVA and post-hoc Bonferroni corrected t-tests: ns, not significant; **, P<0.01.

[16] = tested on: STAU1, mTOR, p62, LC3b, CHOP, eIF3α, BiP; assay: Western blot of STAU1, autophagy and UPR proteins in ATXN2-Q58 HEK-293 KI cells; assay type: cell-based
Description: as §5
To determine if lowering ATXN2-Q58 in HEK-293 KI cells could restore pathways that are abnormal in SCA2, several proteins were evaluated by western blotting and RNAs by quantitative PCR following 17-DMAG treatment. […] Probabilities are from one-way ANOVA and post-hoc Bonferroni corrected t-tests: ns, not significant; *, p<0.05; **, p<0.01, ***, p<0.001. […]

[17] = tested on: ATXN2-luc; assay: Orthogonal ATXN2-luc luciferase assay in H2 cells; assay type: cell-based
Description: as §6

[18] = tested on: H2 cells; assay: Orthogonal paired MTT viability in H2 cells; assay type: cell-based; settings: at 1 nM
Method: ATXN2 expression associates with the expression of the proscillaridin A target ATP1A2. […] The cells were also evaluated for viability by MTT assay. Values shown are means and standard deviations. HEK-293 cells were then treated with increasing doses of proscillaridin A for either 24 and 48 hours, showing >50% reduction of endogenous ATXN2 when cells were treated with 1 nM proscillaridin A at 48 hours.

[19] = tested on: endogenous ATXN2; assay: Endogenous ATXN2 expression in HEK-293 cells by qPCR; assay type: cell-based
Description: as §7, §6

[20] = S2 cells, LOPAC1280 library, 24 hrs
[21] = ATXN2-luc, Bright-Glo, H2 and S2 values used as replicates, 12 doses, 96-well plates, read-out: Mean IC50
[22] = minimum cell viability, CellTiter-Fluor, over 12 doses
[23] = Table 1, 24 hrs, single 10 μM dose, Z-score of luciferase

Row | Molecule | IC50 [2, 21] | min ATXN2-luc [2] | min SC luc [3] | min viability [4, 22] | further results
1 | Protriptyline hydrochloride | – | – | – | – | Curve Class [1]: −2.2
2 | Naltrindole hydrochloride | – | – | – | – | Curve Class [1, 20]: −2.2
3 | O=c1[nH]c2ccc(Cl)cc2c(N[C@@H]2CN3CCC2CC3)c1-c1nc2ccccc2[nH]1 [CHIR-124] | 219 nM | 17.98% | 69.4% | 75.06% | –
4 | Cc1ccc(-c2ncn(-c3ccc(Nc4nccc(-c5cccc(N6CCOCC6)c5)n4)cc3)n2)cn1 [SR-3306] | 1300 nM | 15.65% | 82.9% | 65.37% | –
5 | C[C@H]1O[C@@H](O[C@H]2CC[C@]3(C=O)[C@H]4CC[C@]5(C)[C@@H](C6=CC(=O)OC6)CC[C@]5(O)[C@@H]4CC[C@]3(O)C2)C[C@H](O)[C@@H]1O [Helveticoside] | – | – | – | – | Curve Class [1, 20]: −1.1; SD from Mean [5, 23]: −2.733 SD; SD from Mean ([5]; Table 5S, pilot screen, 10 μM): −2.733 SD; Luc at 1 μm [6]: 118; Luc at 10 μm [6]: 41
6 | Cn1cc(-c2cnn3c(N)c(Br)c([C@H]4CCCNC4)nc23)cn1 [Compound 891494-64-7] | 388 nM | 25.49% | 91.51% | – | min viability [4]: 87.04%
7 | S=C(NCCCN1CCOCC1)N1CCN(c2nc(-c3ccccc3)cs2)CC1 [MLS000706289] | 6850 nM | 61.65% | 79.3% | – | min viability [4]: 89.11%
8 | Clc1ccc(C[n+]2cc(-c3ccccc3)n3c2CCCCC3)c(Cl)c1.[Br-] [MLS000420216] | 8080 nM | 56.47% | 72.16% | – | min viability [4]: 84.52%
9 | CO[C@H]1/C=C\C=C(/C)C(=O)NC2=CC(=O)C(NCCN(C)C)=C(C[C@@H](C)C[C@H](OC)[C@H](O)[C@@H](C)/C=C(\C)[C@@H]1OC(N)=O)C2=O [17-DMAG, 17-dimethylaminoethylamino-17-demethoxygeldanamycin] | – | – | – | – | mutant ATXN2-Q58 protein [7]: reduced the expression; also recorded: significantly reduced mutant ATXN2 protein; also recorded: reduction of ATXN2 protein; HSP70 [8]: HSP70 induction; oral bioavailability [9]: orally bioavailable; reduction of ATXN2 protein abundance ([10]; ATXN2-BAC mice, IP, 17-DMAG 100 mg/kg, HSP990 4 mg/kg): 90%; ATXN2 abundance ([10]; BAC-Q22 mice, IP every other day, 17-DMAG 100 mg/kg 16 days, HSP990 4 mg/kg 10 days): reduced ATXN2 abundance; survival / tolerability [11]: well-tolerated; expression of endogenous non-mutant ATXN2 protein [12]: reduced the expression; also recorded: reduction of endogenous non-mutant ATXN2 protein; ATXN3 protein abundance ([13]; CNS tissues): reduced ATXN3 protein abundance in CNS tissues; motor coordination [13]: improved motor coordination; HSP70 [14]: elevated HSP70; also recorded: increase in HSP70; ATXN2-luc transcription [15]: reduction of ATXN2-luc transcription; BiP [16]: further elevated BiP; abundance of STAU1, autophagy marker proteins (mTOR, p62, LC3b) and UPR proteins CHOP and eIF3α [16]: restored abundance
10 | C[C@@H]1O[C@@H](O[C@@H]2C=C3CC[C@@H]4[C@H](CC[C@]5(C)[C@@H](c6ccc(=O)oc6)CC[C@]45O)[C@@]3(C)CC2)[C@H](O)[C@H](O)[C@H]1O [Proscillaridin A] | – | 7.986% | 122% | 74.18% | IC50 ([2]; H2 and S2 used as replicates, 24 hrs, read-out: IC50 (ATXN2-luc, secondary assays)): 17 nM; IC50 ([17]; H2 cells treated for 48 hrs, read-out: IC50 (ATXN2-luc expression)): 0.052 nM; ATXN2-luc reduction ([17]; H2 cells, at 1 nM): 80%; SD from Mean [5, 23]: −7.684 SD; SD from Mean ([5]; Table 5S, pilot screen, 10 μM): −7.684 SD; Luc at 1 μm [6]: 54; Luc at 10 μm [6]: 22; cellular viability (MTT method) [18]: minimal effect on cellular viability; reduction of endogenous ATXN2 ([19]; 1 nM, 48 hours): > 50%; IC50 ([19]; 48 hrs): 677 nM
11 | CCC(=C/[C@H](C)C/C=C/C(C)=C/[C@@H](C)C(=O)[C@@H](C)[C@H](O)[C@@H](C)C/C(C)=C/C(=O)O)/C=C/[C@@H]1OC(=O)C=C[C@@H]1C [Leptomycin B] | 48 nM | 28.33% | 90.06% | 65.42% | –
12 | Cc1cccc(Nc2nc(N[C@@H]3CCCC[C@@H]3N)ncc2C(N)=O)c1 [PRT-060318] | 25400 nM | 64.25% | 86.82% | – | min viability [4]: 94.62%
13 | CCc1c(O)cc(O)c(C(=O)c2ccc(OCCN3CCOCC3)c(OC)c2)c1CC(=O)N(CCOC)CCOC [KW-2478] | 587 nM | 23.94% | 105.9% | 97.67% | –
14 | O=C(Nc1cccc(Nc2ncc(Br)c(NCCc3cnc[nH]3)n2)c1)N1CCCC1 [BX-912] | 8890 nM | 54.94% | 100.4% | 84.4% | –

— patent US20260137707A1, “METHODS OF MODULATING ATXN2 EXPRESSION” (University of Utah Research Foundation, priority 2022, published 2026)
